US20130136778A1, “PTEROSTILBENE (PTER) FOR USE IN THE PREVENTION AND/OR TREATMENT OF SKIN DISEASES, DAMAGES OR INJURIES” (GREEN MOLECULAR, S.L., priority 2009, published 2013)

How the values were obtained:
Type in all cases: in vivo
SKH-1 mice [1] = experiment: Anatomopathological study of the skin after chronic exposure to UV-B; conditions: chronic UV-B irradiation
Experimental: Histochemical techniques were used to study the skin tissues of the different procedures, at a microscopic level.
The tissues were fixed in 4% formaldehyde in PBS over 24 h at 22° C. After the tissues were fixed, they had to be dehydrated in large amounts of ethanol and placed in a hydrophobic and xylene mixture to allow the paraffin to penetrate the tissues to provide sufficient consistency for slicing them thinly in a microtome.
The samples in paraffin were processed with the microtome obtaining slices of about 5-10 μm. The samples were spread over a drop of gelatin at 37° C. and were collected in gelatinized slides.
The protocol used for staining the samples was: • 1. Incubation with Mayer's Hematoxylin for 10-15 minutes. • 2. Wash under running water until bluish. • 3. Incubate with Eosin (1%) for 2-4 minutes. • 4. Eliminate the remaining eosin in ethanol 70° • 5. Dehydration. • 6. Rinse with xylol for 3 minutes. • 7. Let the trays dry out on the stove at 37°.
In relation to the histopathological exam of the tumors induced by chronic irradiation to UV in the SKH1 mice, it was confirmed that the treatment with UV-B produced a strong acanthosis due primarily to the inflammatory process; this gave way to the first signs of tumors, mostly of carcinoma type and not melanoma.
Both the reference compounds and the ones subject of this study (10 μmoles/mouse of polyphenols, or 200 μl of each photoprotector) were applied to the back of the mice for 20 minutes prior to their exposure to UV-B. Medium of groups of 20 mice. Every parameter was measured according to the degree of seriousness (+) light-(+++) serious.

SKH-1 mice [2] = experiment: Experimental atopic dermatitis induced by TNCB
Experimental: Also, on certain specific days prior to sacrificing them, the mice were assessed by a veterinarian who analyzed the skin lesions, qualifying them in function of: • Erythema: redness of the skin conditioned by inflammation due to the excess of blood irrigation by the dilation of blood vessels. • Excoriation: or irritation of the skin with flaky aspect, increase in the descaling of the skin which could result in hyperkeratosis. • The depth of the lesion that could reach the dermis producing soars or ulcers. Each variable was evaluated on a scale of 0-4, 0, for none; 1, for mild; 2, for moderate; 3, marked; and 4, very marked. The addition of the 3 values of each mouse indicated the degree of inflammation. […] Furthermore, the continuous administration of TNCB ointment increased the production of T-lymphocytes, mastocytes and IgE in the serum, as it occurs among human patients with atopic dermatitis. […] Nonetheless, the objective evaluation of these characteristics is complex, and the measuring of the loss of transepidermal water (PTEA or TEWL) assessed through the Tewameter TM 210 system (CK electronics, Germany) is considered an indicator of the functions of cutaneous “barriers” (g/h/cm2). […] TEWL readings were performed continuously until the metrics were stabilized, which can produce between 30-60 seconds of readings.

SKH-1 mice [3] = experiment: Thickness of the epidermis after acute UV-B exposure of 360 mJ/cm2
Experimental: UVB Acute exposure protocols were used: Mice underwent a single exposure of 360 mJ/cm2. The study was conducted at 24 hours after exposure. This protocol was used to evaluate the photoprotective effect of the compounds studied. With the same acute-phase protocol mice from all groups were irradiated. Subsequently mice remained in the animal storage area for a week to see the evolution of the inflammatory response and edema. • 1. Edema formation: skinfold thickness was determined with a caliper 24 hours after the first exposure. • 2. Study of the thickness of the epidermis after exposure to acute irradiation (360 mj/cm^2 24 h hours and 7 days after irradiation). • 3. Histological studies: measuring, in the pictures obtained from histological sections, the thickness of the epidermis. For studies of acute exposure skin samples were taken from the back of the mouse. These samples were fixed with 4% paraformaldehyde (24 hours) and embedded in paraffin. Following cutting the samples were stained with hematoxylin and eosin. The two protocols of UV-B exposure used were: • Intense exposure after a single exposure of 360 mJ/cm^2. The study was carried out 24 hours after the exposure. This protocol was used to assess the photoprotective effects of the compounds studied. • Intense exposure after a single exposure of 360 mJ/cm^2. The study was carried out 1 week after the exposure. The mice were kept in the shed for a week to observe the evolution of the inflammatory and edematous response. At 24 hours or 1 week after the administration of the different treatments the mice were sacrificed and their skin fixed with 4% PFA. To measure the thickness of the epidermis to evaluate possible hyperplasia, a computer program was used, Image J, calibrated with the assistance of a Neubauer camera which allowed the measuring of the epidermis. Results obtained were statistically analyzed by ANOVA and contrasted by the Tukey test and grouped according to the significant differences. […] Therefore PTER alone could be used efficiently in the prevention of skin diseases, injuries or damages induced by ultraviolet B radiation. The evaluation of skin thickness was carried out by using computer software (IMAGE J). Results obtained by ANOVA were contrasted by the Tukey test and grouped according to the significant differences. […] Therefore PTER separately could be used efficiently in the prevention of skin diseases, damages or injuries induced by ultraviolet B radiation.

SMILES: COc1cc(/C=C/c2ccc(O)cc2)cc(OC)c1 [PTER, 3,5-dimethoxy-4′-hydroxy-trans-resveratrol]
- anti-inflammatory and anti-tumor formation effect, histopathological exam (SKH-1 mice [1]): the compound with greatest benefits
- increase in the skinfold 24 hours after the first administration of TNCB (SKH-1 mice [2]; FIG. 19, 10 μmoles polyphenols, 0.5 μmoles dexamethasone 24 h before 1% TNCB): decreased their inflammatory effect due to the TNCB agent
- index of lesions (macroscopic assessment) (SKH-1 mice [2]; TNCB model, up to 4 applications of TNCB): produced less serious lesions than with the use of dexamethasone or with respect to the lack of treatment
- thickness of the epidermis 24 hours after irradiation, applied after UVB (SKH-1 mice [3]; FIG. 2): more efficient in the treatment of skin diseases, injuries or damages caused by radiation, when applied after the exposure to UVB, than the commercial creams (Vichy, Heliocare and Isdin)
- thickness of the epidermis 24 hours after irradiation, applied before UVB (SKH-1 mice [3]; FIG. 2): more efficient as photoprotector, when applied before the exposure to UVB, than the commercial creams (Vichy, Heliocare and Isdin)
- thickness of the epidermis 24 hours after irradiation (before or after application) (SKH-1 mice [3]; FIG. 2, versus group treated only with UV-B): produced better results than even commercial photoprotectors and Resveratrol
- thickness of the epidermis 1 week after irradiation, applied after UVB (SKH-1 mice [3]; FIG. 3): more efficient in the treatment of skin diseases, injuries or damages caused by radiation, when applied after the exposure to UVB, than the commercial creams (Vichy, Heliocare and Isdin)
- thickness of the epidermis 1 week after irradiation, applied before UVB (SKH-1 mice [3]; FIG. 3): more efficient as photoprotector, when applied before the exposure to UVB, than the commercial creams (Vichy, Heliocare and Isdin)
